Experimental data: patent publication US20090137549A1, “Novel compounds useful for the treatment of degenerative & inflamatory diseases” (priority 2006, published 2009)
pIC50: −log10 of the molar value.

target: PDE1A (Homo sapiens, UniProt P54750); assay: PDE1A dose response, Cyclic Nucleotide Phosphodiesterase Assay Kit from Biomol (colorimetric); assay type: biochemical; conditions: purified PDE1A enzyme, 100 μM cAMP
Outline: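 Purified PDE1A hydrolysed 100 μM cAMP with 5′-nucleotidase in Tris 20 mM pH 7.4 with calmodulin, Ca2+, Mg2+, 45 min at 37° C. Released phosphate read by malachite-green absorbance at 615 nm. Duplicate 8-point 1/3 dilutions from 20 μM, 1% DMSO; 10 μM vardenafil defined 100% inhibition.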

**Q.** With `Cc1ccc(S(=O)(=O)N2CCCC(c3nc4c(c(C)nn4C4CCCCC4)c(=O)[nH]3)C2)cc1` (centres unmarked) [Example 86, 1-cyclohexyl-3-methyl-6-(1-(p-tolylsulfonyl)piperidin-3-yl)-1H-pyrazolo[3,4-d]pyrimidin-4(5H)-one] as the molecule, how does the pIC50 read?
**A.** The pIC50 was 6.00 to 6.30.

**Q.** With `Cc1ccccc1C(=O)N1CCCC(c2nc3c(c(C)nn3C3CCCCC3)c(=O)[nH]2)C1` (centres unmarked) [Example 87, 1-cyclohexyl-3-methyl-6-(1-(2-methylbenzoyl)piperidin-3-yl)-1H-pyrazolo[3,4-d]pyrimidin-4(5H)-one] as the molecule, how does the pIC50 read?
**A.** The pIC50 was 6.00 to 6.30.

**Q.** With `O=C(NCCCN1CCOCC1)N1CC(c2nc3c(cnn3C3CCCCC3)c(=O)[nH]2)C1` [Example 88, 3-(1-cyclohexyl-4-oxo-4,5-dihydro-1H-pyrazolo[3,4-d]pyrimidin-6-yl)-N-(3-morpholinopropyl)azetidine-1-carboxamide] as the molecule, how does the pIC50 read?
**A.** The pIC50 was 6.00 to 6.30.

**Q.** `Cc1nn(C2CCCCC2)c2nc(C3CCCN(C(=O)c4ccccc4)C3)[nH]c(=O)c12` (centres unmarked) [Example 89, 6-(1-benzoylpiperidin-3-yl)-1-cyclohexyl-3-methyl-1H-pyrazolo[3,4-d]pyrimidin-4(5H)-one] was tested. Which pIC50 did it give?
**A.** Its pIC50 is 6.00 to 6.30.

**Q.** With `COc1ccccc1C(=O)N1CCCC(c2nc3c(c(C)nn3-c3ccccc3)c(=O)[nH]2)C1` (centres unmarked) [Example 90, 6-(1-(2-methoxybenzoyl)piperidin-3-yl)-3-methyl-1-phenyl-1H-pyrazolo[3,4-d]pyrimidin-4(5H)-one] as the molecule, how does the pIC50 read?
**A.** Its pIC50 is 6.00 to 6.30.

**Q.** With `Cc1nn(C2CCCCC2)c2nc(C3CCCN(C(=O)c4ccccc4Cl)C3)[nH]c(=O)c12` (centres unmarked) [Example 91, 6-(1-(2-chlorobenzoyl)piperidin-3-yl)-1-cyclohexyl-3-methyl-1H-pyrazolo[3,4-d]pyrimidin-4(5H)-one] as the molecule, how does the pIC50 read?
**A.** The pIC50 was 6.00 to 6.30.

**Q.** How did the pIC50 turn out when `Cc1nn(C2CCCCC2)c2nc(C3CCCN(C(=O)c4ccccc4F)C3)[nH]c(=O)c12` (centres unmarked) [Example 92, 1-cyclohexyl-6-(1-(2-fluorobenzoyl)piperidin-3-yl)-3-methyl-1H-pyrazolo[3,4-d]pyrimidin-4(5H)-one] was run?
**A.** Its pIC50 is 6.00 to 6.30.

**Q.** How did the pIC50 turn out when `COc1ccccc1C(=O)N1CC(c2nc3c(c(C)nn3C3CCCCC3)c(=O)[nH]2)C1` [Example 93, 1-cyclohexyl-6-(1-(2-methoxybenzoyl)azetidin-3-yl)-3-methyl-1H-pyrazolo[3,4-d]pyrimidin-4(5H)-one] was run?
**A.** The pIC50 was 6.00 to 6.30.

**Q.** With `O=C(N1CCOCC1)N1CC(c2nc3c(cnn3C3CCCCC3)c(=O)[nH]2)C1` [Example 94, 1-cyclohexyl-6-(1-(morpholine-4-carbonyl)azetidin-3-yl)-1H-pyrazolo[3,4-d]pyrimidin-4(5H)-one] as the molecule, how does the pIC50 read?
**A.** Its pIC50 is 6.00 to 6.30.

**Q.** How did the pIC50 turn out when `Cc1nn(C2CCCCC2)c2nc(C3CCCN(C(=O)c4cccn4C)C3)[nH]c(=O)c12` (centres unmarked) [Example 95, 1-cyclohexyl-3-methyl-6-(1-(1-methyl-1H-pyrrole-2-carbonyl)piperidin-3-yl)-1H-pyrazolo[3,4-d]pyrimidin-4(5H)-one] was run?
**A.** Its pIC50 is 6.00 to 6.30.

**Q.** `Cc1nn(C2CCCCC2)c2nc(C3CCCN(C(=O)c4ccc(C(F)(F)F)cc4)C3)[nH]c(=O)c12` (centres unmarked) [Example 96, 1-cyclohexyl-3-methyl-6-(1-(4-(trifluoromethyl)benzoyl)piperidin-3-yl)-1H-pyrazolo[3,4-d]pyrimidin-4(5H)-one] was tested. Which pIC50 did it give?
**A.** The pIC50 was 6.00 to 6.30.

**Q.** `Cc1nn(C2CCCCC2)c2nc(C3CCCN(C(=O)c4ccsc4)C3)[nH]c(=O)c12` (centres unmarked) [Example 97, 1-cyclohexyl-3-methyl-6-(1-(thiophene-3-carbonyl)piperidin-3-yl)-1H-pyrazolo[3,4-d]pyrimidin-4(5H)-one] was tested. Which pIC50 did it give?
**A.** Its pIC50 is 5.82 to 6.00.

**Q.** How did the pIC50 turn out when `Cc1nn(C2CCCCC2)c2nc(C3CCCN(S(=O)(=O)c4cn(C)cn4)C3)[nH]c(=O)c12` (centres unmarked) [Example 98, 1-cyclohexyl-3-methyl-6-(1-(1-methyl-1H-imidazol-4-ylsulfonyl)piperidin-3-yl)-1H-pyrazolo[3,4-d]pyrimidin-4(5H)-one] was run?
**A.** Its pIC50 is 5.82 to 6.00.

**Q.** How did the pIC50 turn out when `COc1ccccc1NC(=O)N1CCCC(c2nc3c(c(C)nn3C3CCCCC3)c(=O)[nH]2)C1` (centres unmarked) [Example 99, 3-(1-cyclohexyl-3-methyl-4-oxo-4,5-dihydro-1H-pyrazolo[3,4-d]pyrimidin-6-yl)-N-(2-methoxyphenyl)piperidine-1-carboxamide] was run?
**A.** The pIC50 was 5.82 to 6.00.
